According to ChEMBL document CHEMBL4346695, “Thiophenol-formaldehyde triazole causes apoptosis induction in ovary cancer cells and prevents tumor growth formation in mice model” (2019):
The source made the active and inactive calls.

Key:
Caov-4 = experiment: Growth inhibition of human Caov4 cells incubated for 48 hrs by MTT assay; format: functional, cell-based
Homo sapiens = species: Homo sapiens; experiment: Growth inhibition of human ES2 cells incubated for 48 hrs by MTT assay; format: functional
Caov-3 cell line = experiment: Growth inhibition of human Caov3 cells incubated for 48 hrs by MTT assay; format: functional, cell-based

Measured: growth inhibition (GI)

Fc1ccc(-n2cc(COCc3ccccc3S)nn2)c(F)c1
active: all assays above

Sc1ccccc1COCc1cn(-c2c(Cl)cc(Cl)cc2Cl)nn1
active: all assays above

FC(F)(F)c1ccc(-n2cc(COCc3ccccc3S)nn2)cc1
active: all assays above

FC(F)(F)c1ccccc1-n1cc(COCc2ccccc2S)nn1
active: all assays above
